Laboratory results as given in patent publication US11813306B2, “Cyclic tetramer compounds as proprotein convertase subtilisin/kexin type 9 (PCSK9) inhibitors for the treatment of metabolic disorders” (NOVARTIS AG, priority 2018, dated 2023).

Molecular target: human PCSK9 (Homo sapiens, UniProt Q8NBP7)
Assay: PCSK9 ligand binding assay (TR-FRET): interference with binding of human PCSK9 to human LDLR
Conditions: for IC50: Human PCSK9 Alexa Fluor 647 / Human LDLR extracellular domain-Europium Kryptate; for Max % inhibition: efficacy (Amax), 100% = 1 uM unlabeled human PCSK9, 0% = DMSO
Method in brief: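 Read-out was TR-FRET ratio (665 nm over 615 nm, 330 nm excitation) between Alexa Fluor 647-human PCSK9 (16 nM added) and Europium Kryptate-human LDLR ectodomain (4 nM added). Compound and PCSK9 were mixed 30 min before LDLR, then incubated 2 h. Inhibition was normalised to DMSO and unlabelled-PCSK9 controls, giving IC50 and Amax.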

Sequence of human PCSK9 (Q8NBP7 153-692): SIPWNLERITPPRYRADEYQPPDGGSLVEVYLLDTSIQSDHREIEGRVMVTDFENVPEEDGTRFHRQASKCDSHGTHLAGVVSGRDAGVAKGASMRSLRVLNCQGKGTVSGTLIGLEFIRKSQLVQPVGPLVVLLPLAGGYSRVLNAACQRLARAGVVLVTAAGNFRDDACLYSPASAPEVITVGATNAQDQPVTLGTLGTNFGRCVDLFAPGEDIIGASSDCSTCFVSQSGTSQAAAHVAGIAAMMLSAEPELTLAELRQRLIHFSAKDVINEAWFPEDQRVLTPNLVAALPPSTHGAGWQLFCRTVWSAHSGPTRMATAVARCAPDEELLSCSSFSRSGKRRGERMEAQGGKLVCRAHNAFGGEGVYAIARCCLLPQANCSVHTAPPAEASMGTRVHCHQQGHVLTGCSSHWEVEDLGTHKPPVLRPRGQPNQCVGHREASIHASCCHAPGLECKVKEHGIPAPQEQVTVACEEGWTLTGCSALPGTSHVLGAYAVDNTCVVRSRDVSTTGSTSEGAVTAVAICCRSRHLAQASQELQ
Sequence of human PCSK9 (Q8NBP7 31-152 partner limits assumed): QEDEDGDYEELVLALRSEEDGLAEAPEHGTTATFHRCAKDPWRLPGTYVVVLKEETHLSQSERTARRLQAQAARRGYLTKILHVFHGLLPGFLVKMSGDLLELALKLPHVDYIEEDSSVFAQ

Row | IC50 | Max % inhibition | SMILES
1 | 3.16 nM | 99.0% | CCn1c(-c2ccc(Oc3cc(Cl)cc(F)c3CN3C(=O)C[C@@H](CC(F)(F)F)C(=O)N4CCC[C@@](Cc5ccc(Cl)cc5)(C4)NC(=O)[C@H](CO)NC(=O)[C@@H]3C)cc2)cnc1CN(C)C [Compound 88, (3S, 7S, 10S, 13R)-6-(4-chloro-2-(4-(2-((dimethylamino)methyl)-1-ethyl-1H-imidazol-5-yl)phenoxy)-6-fluorobenzyl)-13-(4-chlorobenzyl)-10-(hydroxymethyl)-7-methyl-3-(2,2,2-trifluoroethyl)-1,6,9,12-tetraazabicyclo[11.3.1]heptadecane-2,5,8,11-tetraone]
2 | 879 nM | 99.3% | C[C@H](NCc1ccc(Cl)cc1Oc1ccc(-c2cnc(CN(C)C)n2C)cc1)C(=O)N[C@H]1COC(=O)C[C@@H](Cc2ccccc2)C(=O)N(C)[C@@]2(Cc3ccc(Cl)cc3)CCCN(C2)C1=O [Compound 130, (2S)-N-((3S, 8R, 11R)-8-benzyl-11-(4-chlorobenzyl)-10-methyl-2,6,9-trioxo-5-oxa-1,10-diazabicyclo[9.3.1]pentadecan-3-yl)-2-((4-chloro-2-(4-(2-((dimethylamino)methyl)-1-methyl-1H-imidazol-5-yl)phenoxy)benzyl)amino)propanamide]
3 | 0.7 nM | 107.4% | C[C@H]1C(=O)N[C@@H](CO)C(=O)N(C)[C@@]2(Cc3ccc(Cl)cc3)CCCN(C2)C(=O)[C@H](Cc2ccccc2)CC(=O)N1Cc1ccc(Cl)cc1Oc1ccc(-c2cnc(CN(C)C)n2C)cc1 [Compound 53, (3R, 7S, 10S, 13R)-3-benzyl-6-(4-chloro-2-(4-(2-((dimethylamino)methyl)-1-methyl-1H-imidazol-5-yl)phenoxy)benzyl)-13-(4-chlorobenzyl)-10-(hydroxymethyl)-7,12-dimethyl-1,6,9,12-tetraazabicyclo[11.3.1]heptadecane-2,5,8,11-tetraone]
4 | 3.29 nM | 103.4% | CCN(Cc1ncc(-c2ccc(Oc3cc(Cl)cc(F)c3CN3C(=O)C[C@@H](CC(F)(F)F)C(=O)N4CCC[C@@](Cc5ccc(Cl)cc5)(C4)NC(=O)[C@H](CO)NC(=O)[C@@H]3C)cc2)n1C)C1(C)CC1 [Compound 152, (3S, 7S, 10S, 13R)-6-(4-chloro-2-(4-(2-((ethyl(1-methylcyclopropyl)amino)methyl)-1-methyl-1H-imidazol-5-yl)phenoxy)-6-fluorobenzyl)-13-(4-chlorobenzyl)-10-(hydroxymethyl)-7-methyl-3-(2,2,2-trifluoroethyl)-1,6,9,12-tetraazabicyclo[11.3.1]heptadecane-2,5,8,11-tetraone]
5 | 1.45 nM | 109.6% | COC[C@@H]1NC(=O)[C@H](C)N(Cc2c(F)cc(Cl)cc2Oc2ccc(-c3cnc(CN(C)C)n3C)cc2)C(=O)C[C@@H](C2CCC2)C(=O)N2CCC[C@@](Cc3ccc(Cl)cc3)(C2)N(C)C1=O [Compound 140, (3S, 7S, 10S, 13R)-6-(4-chloro-2-(4-(2-((dimethylamino)methyl)-1-methyl-1H-imidazol-5-yl)phenoxy)-6-fluorobenzyl)-13-(4-chlorobenzyl)-3-cyclobutyl-10-(methoxymethyl)-7,12-dimethyl-1,6,9,12-tetraazabicyclo[11.3.1]heptadecane-2,5,8,11-tetraone]
6 | 1.48 nM | 110.7% | C[C@H](c1ncc(-c2ccc(Oc3cc(Cl)ccc3CN3C(=O)C[C@@H]([C@@H]4CCc5ccccc54)C(=O)N4CCC[C@@](Cc5ccc(Cl)cc5)(C4)NC(=O)[C@H](CO)NC(=O)[C@@H]3C)cc2)n1C)N(C)C.Cl [Compound 70, (3S, 7S,10S, 13R)-6-(4-chloro-2-(4-(2-((R)-1-(dimethylamino)ethyl)-1-methyl-1H-imidazol-5-yl)phenoxy)benzyl)-13-(4-chlorobenzyl)-3-((S)-2,3-dihydro-1H-inden-1-yl)-10-(hydroxymethyl)-7-methyl-1,6,9,12-tetraazabicyclo[11.3.1]heptadecane-2,5,8,11-tetraone]
7 | 281 nM | 91.9% | COC[C@@H]1NC(=O)[C@H](CCCCN2CCOCC2)N(Cc2ccc(Cl)cc2Oc2ccc(-c3cnc(CN(C)C)n3C)cc2)C(=O)C[C@@H]([C@H]2CCc3ccccc32)C(=O)N(C)C[C@@H](Cc2ccc(Cl)cc2)N(C)C1=O.Cl [Compound 131, (2S, 5S, 8R, 12S)-1-(4-chloro-2-(4-(2-((dimethylamino)methyl)-1-methyl-1H-imidazol-5-yl)phenoxy)benzyl)-8-(4-chlorobenzyl)-12-((R)-2,3-dihydro-1H-inden-1-yl)-5-(methoxymethyl)-7,10-dimethyl-2-(4-morpholinobutyl)-1,4,7,10-tetraazacyclotetradecane-3,6,11,14-tetraone]
8 | 0.26 nM | 113.0% | COC[C@@H]1NC(=O)[C@H](C)N(Cc2c(F)cc(Cl)cc2Oc2ccc(-c3cnc(CNC(C)(C)C)n3C)cc2)C(=O)C[C@@H](CC(F)(F)F)C(=O)N2CCC[C@@](Cc3ccc(Cl)cc3)(C2)N(C)C1=O [Compound 136, (3S,7S,10S,13R)-6-(2-(4-(2-((tert-Butylamino)methyl)-1-methyl-1H-imidazol-5-yl)phenoxy)-4-chloro-6-fluorobenzyl)-13-(4-chlorobenzyl)-10-(methoxymethyl)-7,12-dimethyl-3-(2,2,2-trifluoroethyl)-1,6,9,12-tetraazabicyclo[11.3.1]heptadecane-2,5,8,11-tetraone]
9 | 1.62 nM | 95.0% | C[C@H]1C(=O)N[C@@H](CO)C(=O)N[C@@]2(Cc3ccc(Cl)cc3)CCCN(C2)C(=O)[C@H]([C@H]2CCc3ccccc32)CC(=O)N1Cc1ccc(Cl)cc1Oc1ccc(-c2cnc(CN3CCCC3)n2C)cc1.Cl [Compound 68, (3S,7S,10S,13R)-6-(4-chloro-2-(4-(1-methyl-2-(pyrrolidin-1-ylmethyl)-1H-imidazol-5-yl)phenoxy)benzyl)-13-(4-chlorobenzyl)-3-((R)-2,3-dihydro-1H-inden-1-yl)-10-(hydroxymethyl)-7-methyl-1,6,9,12-tetraazabicyclo[11.3.1]heptadecane-2,5,8,11-tetraone hydrochloride]
10 | 0.18 nM | 114.0% | COC[C@@H]1NC(=O)[C@H](C)N(Cc2c(F)cc(Cl)cc2Oc2ccc(-c3cnc(CNC(C)(C)C)n3C)cc2)C(=O)C[C@@H](CC(F)(F)F)C(=O)N2CCC[C@@](Cc3ccc(Cl)cc3)(C2)NC1=O [Compound 138, (3S, 7S, 10S, 13R)-6-(2-(4-(2-((tert-butylamino)methyl)-1-methyl-1H-imidazol-5-yl)phenoxy)-4-chloro-6-fluorobenzyl)-13-(4-chlorobenzyl)-10-(methoxymethyl)-7-methyl-3-(2,2,2-trifluoroethyl)-1,6,9,12-tetraazabicyclo[11.3.1]heptadecane-2,5,8,11-tetraone]
11 | 0.93 nM | 113.3% | COC[C@@H]1NC(=O)[C@H](C)N(Cc2c(F)cc(Cl)cc2Oc2ccc(-c3cnc(CNC(C)(C)C)n3C)cc2)C(=O)C[C@@H](C2CC(F)(F)C2)C(=O)N2CCC[C@@](Cc3ccc(Cl)cc3)(C2)N(C)C1=O [Compound 165, (3S,7S,10S,13R)-6-(2-(4-(2-((tert-butylamino)methyl)-1-methyl-1H-imidazol-5-yl)phenoxy)-4-chloro-6-fluorobenzyl)-13-(4-chlorobenzyl)-3-(3,3-difluorocyclobutyl)-10-(methoxymethyl)-7,12-dimethyl-1,6,9,12-tetraazabicyclo[11.3.1]heptadecane-2,5,8,11-tetraone]
